≈ marks a conversion by molar mass, not a printed value.
Tests used:
Type in all cases: functional
[1] = system: Staphylococcus aureus; test: Bactericidal activity against methicillin resistant Staphylococcus aureus ATCC33591 assessed as inhibition of bacterial growth incubated for 24 hrs by resazurin dye based analysis
[2] = system: Escherichia coli; test: Antibacterial activity against Escherichia coli ATCC25922 assessed as inhibition of bacterial growth incubated for 24 hrs by broth microdilution method
[3] = system: Enterococcus faecium; test: Antibacterial activity against vancomycin-resistant Enterococcus faecium ATCC 700221 assessed as inhibition of bacterial growth incubated for 24 hrs by broth microdilution method
[4] = system: Pseudomonas syringae pv. actinidiae; test: (§1) Antibacterial activity against Pseudomonas syringae pv. actinidiae assessed as inhibition of bacterial growth incubated for 24 hrs by broth microdilution method
[5] = system: Staphylococcus aureus; test: Antibacterial activity against methicillin resistant Staphylococcus aureus ATCC33591 assessed as inhibition of bacterial growth incubated for 24 hrs by broth microdilution method
[6] = system: Staphylococcus aureus; test: Bactericidal activity against Staphylococcus aureus ATCC25923 assessed as inhibition of bacterial growth incubated for 24 hrs by resazurin dye based analysis
[7] = system: Staphylococcus aureus; test: Antibacterial activity against Staphylococcus aureus ATCC25923 assessed as inhibition of bacterial growth incubated for 24 hrs by broth microdilution method
[8] = system: Ralstonia solanacearum; test: Antibacterial activity against Ralstonia solanacearum assessed as inhibition of bacterial growth incubated for 24 hrs by broth microdilution method
[9] = as §1

Row | Compound | MBC [1] | MIC [2] | MIC [3] | MIC [4] | MIC [5] | MBC [6] | MIC [7] | MIC [8] | MIC [9]
1 | GENTAMICIN | > 128 µg/mL | 4 µg/mL | > 128 µg/mL | 8 µg/mL | > 128 µg/mL | 8 µg/mL | 4 µg/mL | 16 µg/mL | –
2 | Cc1ccccc1C(=O)Nc1ccc(C2NCCc3c2[nH]c2ccccc32)cc1 (centres undefined) | – | 64 µg/mL (≈ 168 µM) | > 128 µg/mL | – | 32 µg/mL (≈ 83.9 µM) | – | 32 µg/mL (≈ 83.9 µM) | 128 µg/mL (≈ 336 µM) | 128 µg/mL (≈ 336 µM)
3 | CN1CCc2c([nH]c3ccccc23)C1c1ccc(NC(=O)c2ccc(F)cc2)cc1 (centres undefined) | – | 16 µg/mL (≈ 40.1 µM) | > 128 µg/mL | – | 8 µg/mL (≈ 20 µM) | – | 4 µg/mL (≈ 10 µM) | 16 µg/mL (≈ 40.1 µM) | 128 µg/mL (≈ 320 µM)
4 | CN1CCc2c([nH]c3ccccc23)C1c1ccc(NC(=O)c2ccccc2)cc1 (centres undefined) | – | 128 µg/mL (≈ 336 µM) | > 128 µg/mL | – | 128 µg/mL (≈ 336 µM) | – | 128 µg/mL (≈ 336 µM) | 128 µg/mL (≈ 336 µM) | 64 µg/mL (≈ 168 µM)
5 | COC(=O)c1ccc(C(=O)Nc2ccc(C3NCCc4c3[nH]c3ccccc43)cc2)cc1 (centres undefined) | – | 16 µg/mL (≈ 37.6 µM) | > 128 µg/mL | – | 32 µg/mL (≈ 75.2 µM) | – | 16 µg/mL (≈ 37.6 µM) | 16 µg/mL (≈ 37.6 µM) | 16 µg/mL (≈ 37.6 µM)
6 | CN1CCc2c([nH]c3ccccc23)C1c1ccc(NC(=O)c2ccc(Br)cc2)cc1 (centres undefined) | – | 32 µg/mL (≈ 69.5 µM) | > 128 µg/mL | – | 32 µg/mL (≈ 69.5 µM) | – | 32 µg/mL (≈ 69.5 µM) | 32 µg/mL (≈ 69.5 µM) | 64 µg/mL (≈ 139 µM)
7 | O=C(Nc1ccc(C2NCCc3c2[nH]c2ccccc32)cc1)c1ccccc1 (centres undefined) | – | 64 µg/mL (≈ 174 µM) | > 128 µg/mL | – | 128 µg/mL (≈ 348 µM) | – | 128 µg/mL (≈ 348 µM) | 32 µg/mL (≈ 87.1 µM) | 32 µg/mL (≈ 87.1 µM)
8 | CN1CCc2c([nH]c3ccccc23)C1c1ccc(NC(=O)c2cc(C(F)(F)F)cc(C(F)(F)F)c2)cc1 (centres undefined) | – | 128 µg/mL (≈ 247 µM) | > 128 µg/mL | – | 32 µg/mL (≈ 61.8 µM) | – | 16 µg/mL (≈ 30.9 µM) | 128 µg/mL (≈ 247 µM) | > 128 µg/mL
9 | O=C(Nc1ccc(C2NCCc3c2[nH]c2ccccc32)cc1)c1ccc(Br)cc1 (centres undefined) | – | 8 µg/mL (≈ 17.9 µM) | > 128 µg/mL | – | 32 µg/mL (≈ 71.7 µM) | – | 32 µg/mL (≈ 71.7 µM) | 32 µg/mL (≈ 71.7 µM) | 16 µg/mL (≈ 35.8 µM)
10 | O=C(Nc1ccc(C2NCCc3c2[nH]c2ccccc32)cc1)c1cccc(Cl)c1 (centres undefined) | – | 8 µg/mL (≈ 19.9 µM) | > 128 µg/mL | – | 8 µg/mL (≈ 19.9 µM) | – | 16 µg/mL (≈ 39.8 µM) | 8 µg/mL (≈ 19.9 µM) | 64 µg/mL (≈ 159 µM)
11 | CN1CCc2c([nH]c3ccccc23)C1c1ccc(NC(=O)c2ccc(Cl)cc2)cc1 (centres undefined) | – | 32 µg/mL (≈ 76.9 µM) | > 128 µg/mL | – | 16 µg/mL (≈ 38.5 µM) | – | 8 µg/mL (≈ 19.2 µM) | 32 µg/mL (≈ 76.9 µM) | 64 µg/mL (≈ 154 µM)
12 | Cc1ccccc1C(=O)Nc1ccc(C2c3[nH]c4ccccc4c3CCN2C)cc1 (centres undefined) | – | 64 µg/mL (≈ 162 µM) | > 128 µg/mL | – | 32 µg/mL (≈ 80.9 µM) | – | 64 µg/mL (≈ 162 µM) | 128 µg/mL (≈ 324 µM) | 64 µg/mL (≈ 162 µM)
13 | CN1CCc2c([nH]c3ccccc23)C1c1ccc(NC(=O)c2ccccc2F)cc1 (centres undefined) | – | 64 µg/mL (≈ 160 µM) | > 128 µg/mL | – | 32 µg/mL (≈ 80.1 µM) | – | 64 µg/mL (≈ 160 µM) | 128 µg/mL (≈ 320 µM) | 32 µg/mL (≈ 80.1 µM)
14 | CN1CCc2c([nH]c3ccccc23)C1c1ccc(NC(=O)c2ccc(C(F)(F)F)cc2)cc1 (centres undefined) | – | 16 µg/mL (≈ 35.6 µM) | 128 µg/mL (≈ 285 µM) | – | 8 µg/mL (≈ 17.8 µM) | – | 8 µg/mL (≈ 17.8 µM) | 16 µg/mL (≈ 35.6 µM) | 32 µg/mL (≈ 71.2 µM)
15 | CN1CCc2c([nH]c3ccccc23)C1c1ccc(NC(=O)c2ccc(F)c(C(F)(F)F)c2)cc1 (centres undefined) | – | 16 µg/mL (≈ 34.2 µM) | > 128 µg/mL | – | 8 µg/mL (≈ 17.1 µM) | – | 16 µg/mL (≈ 34.2 µM) | 16 µg/mL (≈ 34.2 µM) | 64 µg/mL (≈ 137 µM)
16 | CN1CCc2c([nH]c3ccccc23)C1c1ccc(NC(=O)c2cccc([N+](=O)[O-])c2)cc1 (centres undefined) | – | 64 µg/mL (≈ 150 µM) | > 128 µg/mL | – | 64 µg/mL (≈ 150 µM) | – | 64 µg/mL (≈ 150 µM) | 64 µg/mL (≈ 150 µM) | > 128 µg/mL
17 | O=C(Nc1ccc(C2NCCc3c2[nH]c2ccccc32)cc1)c1cc(C(F)(F)F)cc(C(F)(F)F)c1 (centres undefined) | – | 128 µg/mL (≈ 254 µM) | > 128 µg/mL | – | 16 µg/mL (≈ 31.8 µM) | – | 16 µg/mL (≈ 31.8 µM) | 128 µg/mL (≈ 254 µM) | 64 µg/mL (≈ 127 µM)

Source: ChEMBL document CHEMBL5576067, “Synthesis and biological evaluation of novel 1,2,3,4-tetrahydro-β-carboline derivatives as potential antibacterial agents” (Bioorg Med Chem Lett, 2024)
